Laboratory results published in PubChem BioAssay (NCI).
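How tested: cells in 96-well plates exposed to compound for 48 hours at five concentrations. TGI: total growth inhibition.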

system: DU-145 prostate; assay: NCI tumour cell line growth inhibition, 48 h

Going from O=C1C(Br)=CC2(C=C1Br)CCN=c1c(O)c3c(c(O)c12)=NC=N3 to COc1ccc2c(c1)OCc1c-2oc2ccccc2c1=O, the TGI rises from 29.6 µM to over 100 µM.

Cc1cc(O)c(/C=N/C(=S)NCCc2ccccc2)c(=O)o1 and Cc1ccccc1Nc1cn(COCc2ccccc2)c(=O)[nH]c1=O cannot be ordered by TGI: over 100 µM for the first, over 100 µM for the second.

Cc1oc2nc(N(C)C)nc(Cl)c2c1C and Nc1nc(Cl)cc(NCC2(CO)COC2)n1 cannot be ordered by TGI: over 100 µM for the first, over 100 µM for the second.

Going from Cn1c(=O)c2c(nc(NCCCCl)n2CC(=O)NCCCCl)n(C)c1=O to Clc1cccc(Cl)c1C1SCC2=Nc3ccccc3CN21 (configuration not stated), the TGI falls from over 100 µM to 68.4 µM.

For CC(=O)O[C@@H]1C=C(C)[C@H](CBr)O[C@@]2(C)CC[C@H](Br)C(C)(C)[C@H]12, the TGI was over 100 µM.

system: SF-268 CNS; assay: NCI tumour cell line growth inhibition, 48 h

Cc1nc(N)c(N2CCNCC2)c(=O)[nH]1 and Cc1ccccc1Nc1cn(COCc2ccccc2)c(=O)[nH]c1=O cannot be ordered by TGI: over 100 µM for the first, over 100 µM for the second.

CCOC(=O)NC(Nc1ccc(S(=O)(=O)Nc2ncccn2)cc1)(C(=O)OCC)C(F)(F)F (configuration not stated) and COc1ccc2c(c1)OCc1c-2oc2ccccc2c1=O cannot be ordered by TGI: over 100 µM for the first, over 100 µM for the second.

O=P(O)(O)CN1CCN(CP(=O)(O)O)CCN(CP(=O)(O)O)CCN(CP(=O)(O)O)CC1 and Cn1c(=O)c2c(nc(NCCCCl)n2CC(=O)NCCCCl)n(C)c1=O cannot be ordered by TGI: over 100 µM for the first, over 100 µM for the second.

Compared with O=C1C(Br)=CC2(C=C1Br)CCN=c1c(O)c3c(c(O)c12)=NC=N3, Clc1cccc(Cl)c1C1SCC2=Nc3ccccc3CN21 (configuration not stated) is higher in TGI: 28.2 µM for the first, over 100 µM for the second.

Cc1oc2nc(N(C)C)nc(Cl)c2c1C and Nc1nc(Cl)cc(NCC2(CO)COC2)n1 cannot be ordered by TGI: over 100 µM for the first, over 100 µM for the second.

CC(=O)O[C@@H]1C=C(C)[C@H](CBr)O[C@@]2(C)CC[C@H](Br)C(C)(C)[C@H]12 gave a TGI of over 100 µM.

system: HOP-92 NSCLC; assay: NCI tumour cell line growth inhibition, 48 h

Cc1nc(N)c(N2CCNCC2)c(=O)[nH]1 and Cc1ccccc1Nc1cn(COCc2ccccc2)c(=O)[nH]c1=O cannot be ordered by TGI: over 100 µM for the first, over 100 µM for the second.

CCOC(=O)NC(Nc1ccc(S(=O)(=O)Nc2ncccn2)cc1)(C(=O)OCC)C(F)(F)F (configuration not stated) and Cc1cc(O)c(/C=N/C(=S)NCCc2ccccc2)c(=O)o1 cannot be ordered by TGI: over 100 µM for the first, over 100 µM for the second.

O=P(O)(O)CN1CCN(CP(=O)(O)O)CCN(CP(=O)(O)O)CCN(CP(=O)(O)O)CC1 and Cn1c(=O)c2c(nc(NCCCCl)n2CC(=O)NCCCCl)n(C)c1=O cannot be ordered by TGI: over 100 µM for the first, over 100 µM for the second.

Compared with O=C1C(Br)=CC2(C=C1Br)CCN=c1c(O)c3c(c(O)c12)=NC=N3, COc1ccc2c(c1)OCc1c-2oc2ccccc2c1=O is higher in TGI: 24.8 µM for the first, over 100 µM for the second.

Cc1oc2nc(N(C)C)nc(Cl)c2c1C and Clc1cccc(Cl)c1C1SCC2=Nc3ccccc3CN21 (configuration not stated) cannot be ordered by TGI: over 100 µM for the first, over 100 µM for the second.

CC(=O)O[C@@H]1C=C(C)[C@H](CBr)O[C@@]2(C)CC[C@H](Br)C(C)(C)[C@H]12 was tested, and the TGI was over 100 µM.

system: NCI-H460 lung; assay: NCI tumour cell line growth inhibition, 48 h

Cc1nc(N)c(N2CCNCC2)c(=O)[nH]1 and Cc1ccccc1Nc1cn(COCc2ccccc2)c(=O)[nH]c1=O cannot be ordered by TGI: over 100 µM for the first, over 100 µM for the second.

CCOC(=O)NC(Nc1ccc(S(=O)(=O)Nc2ncccn2)cc1)(C(=O)OCC)C(F)(F)F (configuration not stated) and Cc1cc(O)c(/C=N/C(=S)NCCc2ccccc2)c(=O)o1 cannot be ordered by TGI: over 100 µM for the first, over 100 µM for the second.

O=P(O)(O)CN1CCN(CP(=O)(O)O)CCN(CP(=O)(O)O)CCN(CP(=O)(O)O)CC1 and Cn1c(=O)c2c(nc(NCCCCl)n2CC(=O)NCCCCl)n(C)c1=O cannot be ordered by TGI: over 100 µM for the first, over 100 µM for the second.

Going from O=C1C(Br)=CC2(C=C1Br)CCN=c1c(O)c3c(c(O)c12)=NC=N3 to Clc1cccc(Cl)c1C1SCC2=Nc3ccccc3CN21 (configuration not stated), the TGI rises from 32.8 µM to over 100 µM.

Cc1oc2nc(N(C)C)nc(Cl)c2c1C and Nc1nc(Cl)cc(NCC2(CO)COC2)n1 cannot be ordered by TGI: over 100 µM for the first, over 100 µM for the second.

CC(=O)O[C@@H]1C=C(C)[C@H](CBr)O[C@@]2(C)CC[C@H](Br)C(C)(C)[C@H]12 was tested, and the TGI was over 100 µM.

system: SW-620 colon; assay: NCI tumour cell line growth inhibition, 48 h

Going from Cc1nc(N)c(N2CCNCC2)c(=O)[nH]1 to O=C1C(Br)=CC2(C=C1Br)CCN=c1c(O)c3c(c(O)c12)=NC=N3, the TGI falls from over 100 µM to 31.9 µM.

CCOC(=O)NC(Nc1ccc(S(=O)(=O)Nc2ncccn2)cc1)(C(=O)OCC)C(F)(F)F (configuration not stated) and Cc1cc(O)c(/C=N/C(=S)NCCc2ccccc2)c(=O)o1 cannot be ordered by TGI: over 100 µM for the first, over 100 µM for the second.

Work on O=P(O)(O)CN1CCN(CP(=O)(O)O)CCN(CP(=O)(O)O)CCN(CP(=O)(O)O)CC1 yielded a TGI of over 100 µM.
